Assay results published in ChEMBL document CHEMBL1149498, “Uncompetitive antagonism of AMPA receptors: Mechanistic insights from studies of polyamine toxin derivatives” (J Med Chem, 2006).

Key:
[1] = target: T1, Glutamate receptor ionotropic, AMPA (Rattus norvegicus, UniProt P19490+P19491+P19492+P19493); test: Antagonist activity against rat brain AMPA receptor expressed in Xenopus laevis oocyte assessed as inhibition of kainate-induced current by two electrode voltage clamp method at holding potential -60 mV
[2] = target: T1, Glutamate receptor ionotropic, AMPA; test: Antagonist activity against rat brain AMPA receptor expressed in Xenopus laevis oocyte assessed as inhibition of kainate-induced current at holding potential -80 mV by two electrode voltage clamp method; assay type: functional
[3] = target: T1, Glutamate receptor ionotropic, AMPA; test: Antagonist activity against rat brain AMPA receptor expressed in Xenopus laevis oocyte assessed as inhibition of kainate-induced current by two electrode voltage clamp method at holding potential -40 mV
[4] = target: T2, Glutamate receptor 1 (Rattus norvegicus, UniProt P19490); test: Antagonist activity against rat GluR1 flop expressed in Xenopus laevis oocyte assessed as inhibition of glutamate-induced current at holding potential -80 mV by two electrode voltage clamp method; assay type: functional
[5] = target: T1, Glutamate receptor ionotropic, AMPA; test: Antagonist activity against rat brain AMPA receptor expressed in Xenopus laevis oocyte assessed as inhibition of kainate-induced current by two electrode voltage clamp method at holding potential -100 mV
[6] = target: T2, Glutamate receptor 1; test: Antagonist activity against rat GluR1 flop expressed in Xenopus laevis oocyte assessed as inhibition of glutamate-induced current at holding potential -60 mV by two electrode voltage clamp method; assay type: functional
[7] = target: T2, Glutamate receptor 1; test: Antagonist activity against rat GluR1 flop expressed in Xenopus laevis oocyte assessed as inhibition of glutamate-induced current at holding potential -100 mV by two electrode voltage clamp method; assay type: functional

T2 sequence (P19490 whole entry): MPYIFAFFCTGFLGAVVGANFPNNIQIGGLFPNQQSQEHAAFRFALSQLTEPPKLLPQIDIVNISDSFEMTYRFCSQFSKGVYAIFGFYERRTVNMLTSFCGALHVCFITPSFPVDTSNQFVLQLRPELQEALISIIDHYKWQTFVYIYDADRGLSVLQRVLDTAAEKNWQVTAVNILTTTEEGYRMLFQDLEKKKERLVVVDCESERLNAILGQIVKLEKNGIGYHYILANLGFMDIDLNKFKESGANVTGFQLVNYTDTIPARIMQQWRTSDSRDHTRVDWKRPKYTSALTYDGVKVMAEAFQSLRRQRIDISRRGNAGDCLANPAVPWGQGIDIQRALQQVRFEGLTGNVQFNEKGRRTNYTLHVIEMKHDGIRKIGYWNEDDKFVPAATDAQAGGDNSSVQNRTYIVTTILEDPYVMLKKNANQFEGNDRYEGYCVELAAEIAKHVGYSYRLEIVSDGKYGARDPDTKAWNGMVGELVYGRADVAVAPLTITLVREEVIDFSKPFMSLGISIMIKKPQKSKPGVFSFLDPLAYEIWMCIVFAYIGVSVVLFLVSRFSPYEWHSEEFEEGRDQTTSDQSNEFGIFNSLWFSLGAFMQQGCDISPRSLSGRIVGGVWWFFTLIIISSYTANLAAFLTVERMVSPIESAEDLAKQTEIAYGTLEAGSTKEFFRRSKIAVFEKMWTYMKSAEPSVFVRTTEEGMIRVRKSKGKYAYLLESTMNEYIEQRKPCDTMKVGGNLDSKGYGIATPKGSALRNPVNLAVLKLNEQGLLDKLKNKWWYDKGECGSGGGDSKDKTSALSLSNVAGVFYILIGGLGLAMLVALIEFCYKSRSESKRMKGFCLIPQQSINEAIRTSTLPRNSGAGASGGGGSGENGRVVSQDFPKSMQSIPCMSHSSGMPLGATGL

| SMILES | IC50 [1] | IC50 [2] | IC50 [3] | Ki [4] | IC50 [5] | Ki [6] | Ki [7] |
| --- | --- | --- | --- | --- | --- | --- | --- |
| CCCC(=O)N[C@@H](Cc1ccc(O)cc1)C(=O)NCCCCNCCCCCCCN | 60.1 nM | 16 nM | 176 nM | 38 nM | 3.3 nM | – | – |
| CCCC(=O)N[C@@H](Cc1ccc(O)cc1)C(=O)NCCCCCNCCCCCCCCCCCCN | – | – | – | 480 nM | – | 3100 nM | 77 nM |
| CCCC(=O)N[C@@H](Cc1ccc(O)cc1)C(=O)NCCCCCNCCCN | – | 1100 nM | – | 63 nM | – | 270 nM | 14 nM |
| CCCC(=O)N[C@@H](Cc1ccc(O)cc1)C(=O)NCCCCCCNCCCCCN | – | 388 nM | – | 468 nM | – | – | – |
| CCCC(=O)N[C@@H](Cc1ccc(O)cc1)C(=O)NCCCCCCNCCCCCCN | – | 270 nM | – | 685 nM | – | – | – |
| CCCC(=O)N[C@@H](Cc1ccc(O)cc1)C(=O)NCCCCCNCCCCCN | – | 207 nM | – | 95 nM | – | 460 nM | 13 nM |
| CCCC(=O)N[C@@H](Cc1ccc(O)cc1)C(=O)NCCCNCCCCCCCCN | – | 248 nM | – | 350 nM | – | – | – |
| CCCC(=O)N[C@@H](Cc1ccc(O)cc1)C(=O)NCCCCCNCCCCN | – | 283 nM | – | 68 nM | – | 450 nM | 13 nM |
| CCCC(=O)N[C@@H](Cc1ccc(O)cc1)C(=O)NCCCCCNCCN | – | 12300 nM | – | 410 nM | – | 1500 nM | 140 nM |
| CCCC(=O)N[C@@H](Cc1ccc(O)cc1)C(=O)NCCCCCCCNCCCCCCN | – | 45 nM | – | 208 nM | – | – | – |
| CCCC(=O)N[C@@H](Cc1ccc(O)cc1)C(=O)NCCCCCCCCNCCCCCCN | – | 25 nM | – | 77 nM | – | – | – |
| CCCC(=O)N[C@@H](Cc1ccc(O)cc1)C(=O)NCCCCCCCCNCCCN | – | 39 nM | – | 65 nM | – | – | – |
| CCCC(=O)N[C@@H](Cc1ccc(O)cc1)C(=O)NCCNCCCCCCN | – | 310 nM | – | 208 nM | – | – | – |
| CCCC(=O)N[C@@H](Cc1ccc(O)cc1)C(=O)NCCCCCNCCCCCCN | – | 87 nM | – | 3 nM | – | 660 nM | 10 nM |
| CCCC(=O)N[C@@H](Cc1ccc(O)cc1)C(=O)NCCCNCCCCCCN | – | 547 nM | – | 126 nM | – | – | – |
| CCCC(=O)N[C@@H](Cc1ccc(O)cc1)C(=O)NCCCCCCCNCCCCN | – | 138 nM | – | 168 nM | – | – | – |
| CCCC(=O)N[C@@H](Cc1ccc(O)cc1)C(=O)NCCCCCCCCCNCCN | – | 122 nM | – | 410 nM | – | – | – |
| CCCC(=O)N[C@@H](Cc1ccc(O)cc1)C(=O)NCCCCCNCCCCCCCCCN | – | 798 nM | – | 450 nM | – | 5000 nM | 65 nM |
| CCCC(=O)N[C@@H](Cc1ccc(O)cc1)C(=O)NCCCCNCCCCCCN | – | 324 nM | – | 53 nM | – | – | – |
| CCCC(=O)N[C@@H](Cc1ccc(O)cc1)C(=O)NCCCCCCCCCNCCCCCCN | – | 86 nM | – | 37 nM | – | – | – |
| CCCC(=O)N[C@@H](Cc1ccc(O)cc1)C(=O)NCCCCCNCCCCCCCCN | – | 160 nM | – | 330 nM | – | 2300 nM | 37 nM |
| CCCC(=O)N[C@@H](Cc1ccc(O)cc1)C(=O)NCCCCCNCCCCCCCN | – | 127 nM | – | 110 nM | – | 1100 nM | 10 nM |
| CCCC(=O)N[C@@H](Cc1ccc(O)cc1)C(=O)NCCCCCNCCCCCCCCCCN | – | – | – | 180 nM | – | 1200 nM | 26 nM |
